# Experimental data published in US11473034B2, “Highly stable and alkaline cleaning solutions and soluble surfactant” (EVONIK OPERATIONS GMBH, priority 2018, dated 2022).
# Test: Foaming properties (automated shake test, foam volume relative to solution and foam volume)
# Format: physicochemical
# Conditions: 2 wt % in 45% KOH
# Description: Determining the Foaming Properties of Surfactants
# Foaming results from surfactants occupying the air/solution interface to stabilize films of solution that encircle air under agitation. Surfactants may produce more or less foam and contribute to higher or lower stability of these foams. This characteristic of a surfactant may be shown by shaking a tube in a controlled, repeatable fashion (generally through the use of automation) and then measuring the volume of foam in the tube relative to the volume of both foam and solution. Numerous examples of variations on this method may be found in scientific literature, such as Amaral, das Neves, J., Oliveira, Â. Z., and Bahia, M. F., “Foamability of Detergent Solutions Prepared with Different Types of Surfactants and Waters”, Journal of Surfactants and Detergents, 11, 275-278 (2008).
# The foaming properties of solutions of Monosodium Cyclohexylamine Dipropionate (Example 1), Monosodium Butyloxypropylamine Dipropionate (Example 2), and 1.5 Sodium Butyloxypropylaminopropylamine Tripropionate (Example 3), prepared as 2 wt % in 45% KOH, were examined. Samples of each solution were shaken vigorously in an automated apparatus to ensure identical treatment of each sample and the volume of foam relative to the total volume of solution and foam was determined.
substance,measurement,setting,value
1.5 Sodium Butyloxypropylaminopropylamine Tripropionate [Example 3],Foam Volume (as Percentage of Solution and Foam Volume),1 Minute,57.5 Percentage of Solution and Foam Volume
same,Foam Volume (as Percentage of Solution and Foam Volume),3 Minutes,53.1 Percentage of Solution and Foam Volume
same,Foam Volume (as Percentage of Solution and Foam Volume),Initial,57.6 Percentage of Solution and Foam Volume
